Reference: patent US20040198609A1, “4-alkyl-substituted thienyloxy-pyridines” (priority 2001, published 2004)

What was measured:
Experiment in all cases: greenhouse post-emergence herbicidal test
Format in all cases: in vivo
Conditions in all cases: application rates of 0.25 or 0.125 kg/ha
Amaranthus retroflexus = system: Amaranthus retroflexus
From the text: (§1) The seeds of the test plants were sown separately for each species. For the post-emergence treatment, the test plants were first grown to a height of from 3 to 15 cm, depending on the plant habit, and only then treated with the active compounds which had been suspended or emulsified in water. The test plants were for this purpose either sown directly and grown in the same containers, or they were first grown separately as seedlings and transplanted into the test containers a few days prior to treatment. The application rate for the post-emergence treatment was 0.25 or 0.125 kg of a.s. (active substance)/ha. Depending on the species, the plants were kept at 10-25° C. or 20-35° C. The test period extended over 2 to 4 weeks. During this time, the plants were tended, and their response to the individual treatments was evaluated. Evaluation was carried out using a scale from 0 to 100. 100 means no emergence of the plants, or complete destruction of at least the above-ground parts, and 0 means no damage, or normal course of growth. The plants used in the greenhouse experiments were of the following species: [table]

Chenopodium album = system: Chenopodium album
From the text: as §1

Galium aparine = system: Galium aparine
From the text: as §1

Pharbitis purpurea = system: Pharbitis purpurea
From the text: as §1

Measured: post-emergence action

Cc1c(F)c(Oc2csc(C(F)(F)F)c2)nc(-n2ccc(C(F)(F)F)n2)c1F [compound 3.1, 3,5-Difluoro-4-methyl-2-(3-trifluoromethyl-1H-pyrazol-1-yl)-6-(5-trifluoromethyl-3-thienyloxy)pyridine]
very good: all assays above
